# According to patent US8476290B2, “Compound having spiro-bonded cyclic group and use thereof” (Ono Pharmaceutical Co., Ltd., priority 2009, dated 2013):
# Key:
# [1] = system: X4-HIV-1 strains (for example, HIV-1NL4.3 strains); experiment: HIV infection inhibitory test using PBMC; type: cell-based; details: human PBMC stimulated with PHA and IL-2, culture 7 days, culture supernatant
# Protocol: Human PBMC (peripheral blood mononuclear cells) was isolated from HIV-negative healthy persons and subjected to stimulated culture in the presence of PHA (Phytohemagulutinin) and IL-2. Stimulated PBMC was inoculated in each of 96-well microplates and X^4-HIV-1 strains (for example, HIV-1NL4.3 strains) were exposed in the co-presence of a test compound. After culturing for 7 days, a reverse transcriptase activity of HIV-1 in the culture supernatant was measured and an inhibitory ratio (%) of the test compound was calculated by the following calculation formula, and a concentration (IC90 value) showing a 90% inhibitory ratio was determined. Inhibition={(Et−Ec)/Et}×100 [Equation 1] Et: reverse transcriptase activity value in the absence of a test compound Ec: reverse transcriptase activity value in the presence of a test compound
# [2] = system: CHL/IU (cell line derived from a Chinese hamster lung); experiment: Phospholipid accumulation measurement (phospholipidosis induction); type: cell-based; details: NBD-PE, about 48 hours, at 400 μM (maximum treatment concentration); positive = 25% or more of maximum increase rate of amiodarone
# Protocol: 100 µL/well as required (1 dose 2 wells) of cell suspension of CHL/IU (cell line derived from a Chinese hamster lung) (7×10^4 cells/mL) prepared by MEM (minimum essential medium) culture medium was added to a 96-well plate (96-well clear-bottom plate), and cultured for about 24 hours. After culture, the supernatant of the 96-well plate was removed, and the 100 μL/well compounds of each concentration dissolved and suspended in a minimum essential medium (MEM) including 25 μM nitrobenzoxazole dipalmitoyl phosphatidylethanolamine (NBD-PE) (hereinafter abbreviated to a NPD-PE medium) were added and treated for about 48 hours. The treatment concentrations of each compound were set to be 5, 50, 100, 200 and 400 μM. The positive control substance was set to be amiodarone hydrochloride, and the treatment concentrations were set to be 1.25, 2.5, 5, 10 and 20 μM. In addition, 5-well untreated controls (only MEM) and 5-well NBD-PE controls (made by means of adding a 1/100 amount of DMSO to the NBD-PE culture medium) were set per compound, and cultured in the same manner. After finishing the culture, the cultures were washed twice with PBS (−) 100 μL/well, and the MEM (100 μL) was added to all of the treatment wells including two empty wells for WST-1 background controls and cultured for about half an hour. The fluorescence intensities of each well were measured by using a microplate reader (manufactured by Molecular Devices Inc., SPECTRA max M2; the excitation wavelength 485 nm/fluorescence wavelength 535 nm). Using the average values of each dose×2 wells, a phospholipid increase rate (%) to the NBD-PE control was calculated by using the following calculating formula: Rate of increase of phospholipid accumulation (%)=100×{(test substance fluorescence intensity−non-treated control fluorescence intensity)/(NBD-PE control fluorescence intensity−non-treated control fluorescence intensity)} 3. Cytotoxicity Test 96-well plate measured in the phospholipid accumulation measurement was measured by means of Plate Reader (manufactured by Molecular Devices Inc., SPECTRA max M2) with the main wavelength of 450 nm and the correct wavelength of 690 nm to calculate a Pre value. An amount of 5 μL/well of Premix WST-1 was added to each of the 96-well plates by which Pre measurement was conducted. After culture for 2 to 4 hours, the 96-well plate was measured as well as the Pre measurement to calculate an Aft value. Then, the background control value was subtracted from the each measured value. A value which was calculated by subtracting the Pre value from the Aft value was used, then the cell growth rate (%) was calculated by using the following calculating formula: Cell growth rate (%)=100×{(test substance OD)/(NBD-PE control OD)} 4. Determination A test dose that indicated value of 25% or more of the maximum phospholipid accumulation increase rate of amiodarone which was the positive control was determined as positive. In addition, the dose whose cell growth rate was equal to or less than 50% in the cytotoxicity test was not used for determination of existence or nonexistence of a phospholipidosis inductive effect.
# CXCR4 = target: T1, CXCR4 (Homo sapiens, UniProt P61073); experiment: Inhibition of binding human SDF-1 to CEM cells; details: 125I-SDF-1, CEM cells, 4° C., 60 minutes; read-out: concentration showing 50% of an inhibition ratio
# T1 construct: a human T cell strain in which CXCR4 is known to be expressed; endogenous in cells; host or cells: CEM cells (human T cell strain)
# T1 sequence (P61073 whole entry): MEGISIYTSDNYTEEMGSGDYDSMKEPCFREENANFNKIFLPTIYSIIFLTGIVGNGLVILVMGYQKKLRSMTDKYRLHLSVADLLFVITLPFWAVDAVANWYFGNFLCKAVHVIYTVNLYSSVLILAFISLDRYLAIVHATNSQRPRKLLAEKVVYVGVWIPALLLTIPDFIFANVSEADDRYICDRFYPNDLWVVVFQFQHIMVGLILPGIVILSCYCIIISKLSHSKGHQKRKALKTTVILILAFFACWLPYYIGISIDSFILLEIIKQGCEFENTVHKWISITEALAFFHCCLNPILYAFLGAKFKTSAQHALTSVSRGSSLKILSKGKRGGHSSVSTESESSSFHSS
# Protocol: Specifically, as a system of screening a compound that inhibits the binding between SDF-1 and CXCR4, for example a system of measuring the binding between iodine-labeled SDF-1 and a human T cell strain in which CXCR4 is known to be expressed is operable.
# To human T cell strain CEM cells in a binding buffer (containing 2-[4-(2-Hydroxyethyl)-1-piperadinyl]ethansulfonic acid; HEPES and BSA), the test compound and ^125I-SDF-1 (PerkinElmer) were added and the mixture was incubated at 4° C. for 60 minutes. The reacted CEM cells were rapidly filtrated with a GF/B membrane filter plate (Packard) to adsorb. The plate was washed with phosphate buffered saline (hereinafter abbreviated to PBS) three times and then dried. Microscint+20 (Packard) was added thereto. An amount of the radioactivity bound to the CEM cells was measured using Top Count (Packard) and inhibition ratio (%) of the test compound was calculated according to the following equation: Inhibition={(Et−Ea)/(Et−Ec)}×100 [Equation 2] Et: Amount of radioactivity when the test compound is not added, Ec: Amount of radioactivity when non-radioactive SDF-1 (Pepro Tech) is added in an amount of 1,000 times as much as ^125I-SDF-1 as a test compound, and Ea: Amount of radioactivity when the test compound is added.
# [3] = Blood kinetic test and time (T90) to maintain the IC90 value; type: in vivo, Crl:CD(SD) Rat; details: time the plasma concentration stays at the PBMC IC90 value or more; rat, intravenous 1 mg/kg
# Protocol: A test compound was weighed, dissolved in WellSolve (trade name; manufactured by Celeste Corporation)/water/physiological saline=1/9/10 which was heated at 60° C. and adjusted to 20 mg/mL. Thereafter, the test compound was diluted by 10 times with distilled water for injection, and further diluted by 2 times with physiological saline. Then, intravenous administration was performed by rapid single administration of an intravenously administered solution (1 mg/kg) from the tail vein of Crl:CD(SD) Rat (male, manufactured by CHARLES RIVER LABORATORIES JAPAN, INC). The administration is conducted under fasting conditions; water is freely ingested. A 0.35 mL blood sample is taken from cervical vein by using Heparinized Syringe at 5 minutes, 15 minutes, 30 minutes, 1 hour, 2 hours, 4 hours, 6 hours, 8 hours, and 24 hours after administration. The obtained blood is stored in ice, and after centrifugation at 12,000 rpm for 5 minutes, blood plasma is fractionated. An internal standard solution (100 μL) and acetonitrile (2 mL) was added to 100 μL of plasma, followed by stirring and further centrifugation at 2,500 rpm for 10 minutes. The supernatant was desiccated by a centrifugal thickener and then 150 μL of an aqueous 67% dimethyl sulfoxide solution was added to the residue thereby dissolving again the residue, and 20 μL of the resultant solution was analyzed by LC/MS/MS.
# Analysis by LC/MS/MS was carried out under the following conditions.
# A curve of the compound concentration in plasma versus the time of each compound was adapted to a 1 or 2 compartment model using pharmacokinetic analysis software WinNonlin (trade name) (ver4.0.1, Pharsight Corporation).
Compound,T90 [3],further results
"CCC(CC)N1CCC2(CC1)C[C@H](C(=O)O)N(Cc1ccc(CN(Cc3ncc[nH]3)Cc3ncc[nH]3)cc1)C2 [Example 32(6), (3R)-2-(4-{[bis(1H-imidazol-2-ylmethyl)amino]methyl}benzyl)-8-(1-ethylpropyl)-2,8-diazaspiro[4.5]decane-3-carboxylic acid]",–,IC90 value (concentration showing a 90% inhibitory ratio of HIV-1 reverse transcriptase activity) [1]: 0.27 nM; phospholipidosis induction activity (determination) [2]: negative; IC50 (CXCR4): 3.3 nM
"CCC(CC)N1CCC2(CC1)C[C@@H](C(=O)O)N(Cc1ccc(CN(Cc3ncc[nH]3)Cc3ncc[nH]3)cc1)C2 [Example 32(7), (3S)-2-(4-{[bis(1H-imidazol-2-ylmethyl)amino]methyl}benzyl)-8-(1-ethylpropyl)-2,8-diazaspiro[4.5]decane-3-carboxylic acid]",–,IC90 value (concentration showing a 90% inhibitory ratio of HIV-1 reverse transcriptase activity) [1]: 0.23 nM; phospholipidosis induction activity (determination) [2]: negative; IC50 (CXCR4): 3.2 nM
"CCC(CC)N1CCC2(CC1)C[C@H](C(=O)O)N(Cc1ccc(CN(Cc3ncc[nH]3)Cc3nccn3C)cc1)C2 [Example 37(6), (3R)-8-(1-ethylpropyl)-2-[4-({(1H-imidazol-2-ylmethyl)[(1-methyl-1H-imidazol-2-yl)methyl]amino}methyl)benzyl]-2,8-diazaspiro[4.5]decane-3-carboxylic acid]",–,phospholipidosis induction activity (determination) [2]: negative; IC50 (CXCR4): 11.3 nM
"CCC(CC)N1CCC2(CC1)C[C@@H](C(=O)O)N(Cc1ccc(CN(Cc3ncc[nH]3)Cc3nccn3C)cc1)C2 [Example 37(7), (3S)-8-(1-ethylpropyl)-2-[4-({(1H-imidazol-2-ylmethyl)[(1-methyl-1H-imidazol-2-yl)methyl]amino}methyl)benzyl]-2,8-diazaspiro[4.5]decane-3-carboxylic acid]",–,phospholipidosis induction activity (determination) [2]: negative; IC50 (CXCR4): 11.1 nM
"CCC(CC)N1CCC2(CCN(Cc3ccc(CN(Cc4ncc[nH]4)Cc4ncc[nH]4)cc3)C2)CC1 [b, 1-(4-{[8-[1-ethylpropyl]-2,8-diazaspiro[4.5]deca-2-yl)methyl}phenyl]-N,N-bis(1H-imidazol-2-ylmethyl)methaneamine]",12 h,–
"CCC(CC)N1CCC2(CC1)C[C@@H](C(N)=O)N(Cc1ccc(CN(Cc3ncc[nH]3)Cc3ncc[nH]3)cc1)C2 [c, (3S)-2-(4-{[bis(1H-imidazol-2-ylmethyl)amino]methyl}benzyl)-8-(1-ethylpropyl)-2,8-diazaspiro[4.5]decane-3-carboxyamide]",7 h,–
"O=C(O)c1cc(CN(Cc2ncc[nH]2)Cc2ncc[nH]2)ccc1CN1CCC2(CCN(C3CCCCC3)CC2)C1 [d, 5-{[bis(1H-imidazol-2-ylmethyl)amino]methyl}-2-[(8-cyclohexyl-2,8-diazaspiro[4.5]deca-2-yl)methyl]benzenecarboxylic acid]",5 h,–
"CCC(CC)N1CCC2(CC1)CN(Cc1ccc(CN(Cc3ncc[nH]3)Cc3ncc[nH]3)cc1)CC2C(=O)O (stereo not shown) [e, 2-(4-{[bis(1H-imidazol-2-ylmethyl)amino]methyl}benzyl)-8-(1-ethylpropyl)-2,8-diazaspiro[4.5]decane-4-carboxylic acid]",17 h,–
"CCC(CC)N1CCC2(CC1)CCN(Cc1ccc(CN(Cc3ncc[nH]3)Cc3ncc[nH]3)cc1)C2C(=O)O (stereo not shown) [f, 2-(4-{[bis(1H-imidazol-2-ylmethyl)amino]methyl}benzyl)-8-(1-ethylpropyl)-2,8-diazaspiro[4.5]decane-1-carboxylic acid]",6 h,–
"CC(C)CN1CCC2(CCN(Cc3ccc(CN(Cc4ncc[nH]4)Cc4ncc[nH]4)cc3)C2)CC1C(=O)O (stereo not shown) [g, 2-(4-{[bis(1H-imidazol-2-ylmethyl)amino]methyl}benzyl)-8-isobutyl-2,8-diazaspiro[4.5]decane-7-carboxylic acid]",2 h,–
"CCC(CC)N1CC2(CCN(Cc3ccc(CN(Cc4ncc[nH]4)Cc4ncc[nH]4)cc3)CC2)CC1C(=O)O (stereo not shown) [h, 8-(4-{[bis(1H-imidazol-2-ylmethyl)amino]methyl}benzyl)-2-(1-ethylpropyl)-2,8-diazaspiro[4.5]decane-3-carboxylic acid]",1.2 h,–
CCCN(CC)CCCCN(CC(=O)O)Cc1ccc(CN(Cc2ncc[nH]2)Cc2nccn2C)cc1 [i],3 h,–
CCOC(=O)C1CC2(CCN(Cc3ccc(C(=O)N(Cc4ncc[nH]4)Cc4ncc[nH]4)cc3)CC2)CN1C1CCCCC1 (stereo not shown) [j],<1 h,–
COC(=O)c1cc(CN(Cc2ncc[nH]2)Cc2ncc[nH]2)ccc1CN1CCC2(CCN(Cc3sccc3C)CC2)C1 [k],14 h,–
O=C(O)Cn1ccnc1CN(Cc1ccc(CN2CCC3(CCN(C4CCCCC4)CC3)C2)cc1)Cc1ncc[nH]1 [l],4 h,–
CCC(CC)N1CCC2(CCN(CCCn3ccnc3CN(Cc3cccc(CC(=O)O)c3)Cc3ncc[nH]3)C2)CC1 [m],4 h,–
